Experimental data published in PubChem BioAssay AID330 (DTP/NCI, 2004).
“And” between values parts separate entries of the source, which are not always exact repeats. Identical values can stand only once. Toxic doses and inconclusive results are not listed. How the source made its calls: active means survival T/C of 150% or more; inactive means T/C below 125% in these data. Peptide text beside a SMILES is read from it. * marks the point of attachment. Cbz = O=C(OCc1ccccc1)*

Test system: P388 leukemia ip, CD2F1 mice, survival T/C
Assay: NCI In Vivo Anticancer Drug Screen. Data for tumor model P388 Leukemia (intraperitoneal) in CD2F1 (CDF1) mice
Details: endpoint: median survival time, higher = longer survival
Method in brief: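 Mice carrying the transplanted tumor received test compound or vehicle. Survival was recorded in each group, and the value is the treated-group measurement divided by that of the vehicle-treated control group.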

[1] = dose: 50.0 mg/kg/injection, schedule: Q01DX005 (ip), vehicle: saline with Tween-80
[2] = dose: 100.0 mg/kg/injection, schedule: Q01DX005 (ip), vehicle: saline with Tween-80
[3] = dose: 200.0 mg/kg/injection, schedule: Q01DX005 (ip), vehicle: saline with Tween-80
[4] = dose: 50.0 mg/kg/injection, schedule: Q01DX005 (ip), vehicle: Klucel (hydroxypropylcellulose) (HPC)
[5] = dose: 100.0 mg/kg/injection, schedule: Q01DX005 (ip), vehicle: Klucel (hydroxypropylcellulose) (HPC)
[6] = dose: 200.0 mg/kg/injection, schedule: Q01DX005 (ip), vehicle: Klucel (hydroxypropylcellulose) (HPC)
[7] = dose: 50.0 mg/kg/injection, schedule: Q01DX009 (ip), vehicle: Klucel (hydroxypropylcellulose) (HPC)
[8] = dose: 100.0 mg/kg/injection, schedule: Q01DX009 (ip), vehicle: Klucel (hydroxypropylcellulose) (HPC)

Measured: T/C

CN(C)c1ccc(C(Cc2ccc3ccccc3n2)Cc2ccc3ccccc3n2)cc1
inactive: [1] 99 % of control | [2] 88 % of control | [3] 89 % of control

CC(C)C(NC(=O)C(Cc1ccc(O)cc1)NC(=O)OCc1ccccc1)C(=O)O (stereo not drawn) (Cbz-Tyr-Val-OH; configuration not given here)
inactive: [4] 103 % of control | [5] 100 % of control | [6] 100 % of control

CCOC(=O)c1ccc(NC(=O)SC2=NCCS2)cc1
inactive: [7] 101 % of control | [8] 103 % of control

Cc1[nH]nc2c1NC(=O)OC(C)(C)C2
inactive: [1] 106 % of control | [2] 99 % of control | [3] 101 % of control

Clc1ccc(C2N3Cc4ccccc4CN2c2ccccc23)cc1
inactive: dose: 100.0 mg/kg/injection, schedule: Q01DX001 (ip), vehicle: Klucel (hydroxypropylcellulose) (HPC) 100 % of control | dose: 200.0 mg/kg/injection, schedule: Q01DX001 (ip), vehicle: Klucel (hydroxypropylcellulose) (HPC) 98 % of control | dose: 400.0 mg/kg/injection, schedule: Q01DX001 (ip), vehicle: Klucel (hydroxypropylcellulose) (HPC) 96 % of control

COc1ccc(NS(=O)(=O)c2ccc(NCc3c4ccccc4nc4ccccc34)cc2)nn1
inactive: dose: 12.5 mg/kg/injection, schedule: Q04DX002 (ip), vehicle: Klucel (hydroxypropylcellulose) (HPC) 96 % of control | dose: 25.0 mg/kg/injection, schedule: Q04DX002 (ip), vehicle: Klucel (hydroxypropylcellulose) (HPC) 99 % of control | dose: 50.0 mg/kg/injection, schedule: Q04DX002 (ip), vehicle: Klucel (hydroxypropylcellulose) (HPC) 89 % of control | dose: 100.0 mg/kg/injection, schedule: Q04DX002 (ip), vehicle: Klucel (hydroxypropylcellulose) (HPC) 87 % of control | dose: 200.0 mg/kg/injection, schedule: Q04DX002 (ip), vehicle: Klucel (hydroxypropylcellulose) (HPC) 91 % of control | dose: 400.0 mg/kg/injection, schedule: Q04DX002 (ip), vehicle: Klucel (hydroxypropylcellulose) (HPC) 93 % of control

Cc1ccc(C(C)C)c(OC(=O)Nc2ccc(Cl)cc2)c1
inactive: [7] 100 % of control | [8] 87 % of control | dose: 200.0 mg/kg/injection, schedule: Q01DX009 (ip), vehicle: Klucel (hydroxypropylcellulose) (HPC) 95 % of control | dose: 400.0 mg/kg/injection, schedule: Q01DX009 (ip), vehicle: Klucel (hydroxypropylcellulose) (HPC) 92 % of control

C[Si]1(C)N(c2ccccc2)[Si](C)(c2ccccc2)N1c1ccccc1
inactive: [4] 94 % of control | [5] 111 % of control | [6] 111 % of control

CC1(C)C(=O)C2=C(Nc3ccccc3C2C(C)(C)C)c2ccccc21 (stereo not given)
inactive: [4] 99 % of control | [5] 93 % of control | [6] 92 % of control

CN(C)C1CC/C=C/CC/C=C/CC[C@H]1O (mixture of isomers)
inactive: dose: 12.5 mg/kg/injection, schedule: Q01DX005 (ip), vehicle: saline with Tween-80 100 % of control | dose: 25.0 mg/kg/injection, schedule: Q01DX005 (ip), vehicle: saline with Tween-80 98 % of control | [1] 99 % of control and 100 % of control

O=C(Nc1ccc(Cl)c(Cl)c1)Oc1cccnc1
inactive: dose: 50.0 mg/kg/injection, schedule: Q01DX009 (ip), vehicle: saline with Tween-80 100 % of control | dose: 100.0 mg/kg/injection, schedule: Q01DX009 (ip), vehicle: saline with Tween-80 105 % of control

COc1ccc(OC)c2c(Cl)cc(N)nc12
inactive: dose: 25.0 mg/kg/injection, schedule: Q01DX005 (ip), vehicle: Klucel (hydroxypropylcellulose) (HPC) 102 % of control | [4] 106 % of control | [5] 101 % of control | [6] 102 % of control

C[n+]1ccc2c([N+](=O)[O-])cccc2c1
inactive: dose: 6.25 mg/kg/injection, schedule: Q01DX005 (ip), vehicle: saline 103 % of control | dose: 12.5 mg/kg/injection, schedule: Q01DX005 (ip), vehicle: saline 112 % of control

COc1cc(CC2C(=O)OCC2Cc2cc(OC)c(O)c(C(CO)C(O)c3ccc(O)c(OC)c3)c2)ccc1O (stereo not given)
inactive: dose: 5.0 mg/kg/injection, schedule: Q01DX009 (ip), vehicle: saline 96 % of control | dose: 10.0 mg/kg/injection, schedule: Q01DX009 (ip), vehicle: saline 107 % of control | dose: 20.0 mg/kg/injection, schedule: Q01DX009 (ip), vehicle: saline 105 % of control | dose: 40.0 mg/kg/injection, schedule: Q01DX009 (ip), vehicle: saline 102 % of control
